# “And” between values parts separate entries of the source, which are not always exact repeats. Identical values can stand only once.
# Experiments:
# plants [1] = test: Synergistic relationship between succinic acid and caprylic/capric acids C/C, herbicidal activity; assay type: in vivo
# From the text: (§1) The herbicides were applied in the “spray to drip” amount or at a calibrated 20-60 gallons/acre. “Spray to drip” is an uncalibrated application of fluid to foliage, where sufficient spray volume is used to sufficiently saturate the foliage surface until excess fluid begins to drip from the foliage.
# young potato plants = test: Effects of desiccants and desiccant combinations with other compounds on young potato plants; assay type: in vivo; set-up: All evaluations (total score): scale not given here
# From the text: as §1
# [2] = test system: snapbean and potato plants; test: Enhancement of Scythe's herbicidal activity by selected compounds; assay type: in vivo; set-up: Totals, all evaluations, Beans / Totals, all evaluations, Potatoes / Totals, all evaluations, All / evaluation, 2 days, beans / evaluation, 2 days, potatoes / evaluation, 11 days, beans / evaluation, 11 days, potatoes / evaluation, 15 days, beans / evaluation, 15 days, potatoes: scale not given here
# From the text: as §1
# [3] = test system: black beans (dry bean variety T39); test: Synergistic interactions of succinic acid and di-ammonium succinate with other herbicidal compounds, dry beans (black); assay type: in vivo; conditions: for Injury rating, average per plot: scale 1-5
# From the text: as §1
# [4] = test system: navy dry beans (navy Vista); test: Synergistic interactions of succinic acid and di-ammonium succinate with herbicidal compounds, navy dry beans; assay type: in vivo, dry bean (navy); conditions: for Injury rating, average per plot: scale 1-5
# From the text: as §1
# [5] = test system: 60 G/a: velvetleaf, black nightshade, redroot pigweed, foxtail and snapbeans; spray to drip: black nightshade, velvetleaf, foxtail and snapbeans; test: Efficacy of 1.5% succinic acid with oleic, caprylic or pelargonic acid in an emulsification system (Emsorb 6900); assay type: in vivo; set-up: Injury rating, total score for 2 evaluation, Spray to drip / Injury rating, total score for 2 evaluation, Total Rating: scale not given here
# From the text: as §1
# plants [6] = test: Herbicidal activity: comparison of caprylic, pelargonic and an equimolar mixture of caprylic and pelargonic acids; assay type: in vivo; conditions: for Injury ratings based on 2 independent evaluations, 40 G/acre: 40 G/acre: chickweed, lambsquarter and green foxtail; for Injury ratings based on 2 independent evaluations, 40 G/acre / Injury ratings based on 2 independent evaluations, 60 G/acre: redroot pigweed, each pot rated 1 to 5; for Injury ratings based on 2 independent evaluations, 60 G/acre: 60 G/acre: chickweed, lambsquarter, green foxtail, crabgrass and wheat; for Average rating per pot: rating 1 to 5, 5 = complete desiccation of all plants
# From the text: The herbicides were applied in the “spray to drip” amount or at a calibrated 20-60 gallons/acre. “Spray to drip” is an uncalibrated application of fluid to foliage, where sufficient spray volume is used to sufficiently saturate the foliage surface until excess fluid begins to drip from the foliage. In general, about 5 to 200 gallons/acre, preferably 20-100 gallons/acre can be effective.
# [7] = test system: 40 G/a: crab grass, pigweed, chick weed and foxtail; 60 G/a: pigweed, Kentucky bluegrass, foxtail, crab grass and barnyard grass; spray to drip: Kentucky …; test: Herbicidal activities: synergy between succinic acid and pelargonic acid; assay type: in vivo; set-up: Total injury ratings, 60 G/a / Total injury ratings, Spray to drip / Total injury ratings, Total: scale not given here
# From the text: as §1
# soybeans [8] = test: Synergistic relationships between succinic acid and caprylic acid at different application rates, testing soybeans; assay type: in vivo; conditions: 2 days after a single foliar application, average of 2 sites, soybean Stine 2250; for Overall Effect: 5 equals profound desiccation
# From the text: as §1
# [9] = Measurement of pH values for test desiccants (Example 55); assay type: physicochemical
# Dry Beans = test: Synergistic relationship between succinic or citric acid and caprylic acid, testing dry beans; assay type: in vivo; conditions: 3 days after single foliar application, dry bean Vista; for Green Foliage, Overall Effect / Yellow Foliage, Overall Effect: 5 equals profound desiccation
# From the text: as §1
# soybeans [10] = test: Synergy comparisons of various organic acids with caprylic acid, testing soybeans; assay type: in vivo; conditions: 3 days after a single foliar application, average of 2 sites, soybean Stine 2250; for Overall Effect: 5 equals profound desiccation
# From the text: as §1
# [11] = test system: chickweed, redtop, velvetleaf, crabgrass and green foxtail; test: Enhancement of herbicidal activity of caprylic/capric acids (c/c) using selected compounds at equimolar amounts; assay type: in vivo; set-up: Relative injury ratings, Day #4 / Relative injury ratings, Day #5: scale not given here; conditions: for Relative injury ratings, Day #2: Day 2 after treatment, 40 G/acre, 8 pots, rating 1-5 per pot, […] Emsorb 6900, […] mineral oil; for Relative injury ratings, Day #4: Day 4 after treatment; for Relative injury ratings, Day #5: Day 5 after treatment; for Average rating per pot: scale 1-5
# From the text: as §1
# [12] = Day 2, one application at 40 G/acre, treatments 1-4, 9-11 in Emsorb 6900/mineral oil/Hasten, 5-8, 12-14 in 0.3% Sylgard 309
# [13] = Day 1, one application at 40 G/acre, treatments 1-4, 9-11 in Emsorb 6900/mineral oil/Hasten, 5-8, 12-14 in 0.3% Sylgard 309
compound,measurement,setting,value
O=C([O-])c1ccccc1O.[Na+] [0.5% sodium salicylate],"Injury ratings, Total",plants [1]; 40 G/a + 60 G/a,1.5
same,"Injury ratings based on 2 independent evaluations, 40 G/a","plants [1]; 40 G/acre: Canadian thistle, velvet leaf, Johnson grass and giant foxtail, each pot rated 1 to 5",1
same,"Injury ratings based on 2 independent evaluations, 60 G/a","plants [1]; 60 G/acre: velvetleaf, Johnson grass and giant foxtail, each pot rated 1 to 5",0.5
same,Average rating per pot,"plants [1]; rating 1 to 5, 5 = complete desiccation of all plants",0.04
CCCCCCCC(=O)O [1% caprylic],"Injury ratings of treated plants, day 1","young potato plants; 1 day after application, 6 = complete desiccation",2
same,"Injury ratings of treated plants, day 3","young potato plants; 3 days after application, 6 = complete desiccation",3
same,"Injury ratings of treated plants, day 6","young potato plants; 6 days after application, 6 = complete desiccation",2
same,"Injury ratings of treated plants, day 17","young potato plants; 17 days after application, 6 = complete desiccation",2.5
same,"Injury ratings of treated plants, day 22","young potato plants; 22 days after application, 6 = complete desiccation",3
same,"Injury ratings of treated plants, day 27","young potato plants; 27 days after application, 6 = complete desiccation",3
same,"Injury ratings of treated plants, […]","young potato plants; […] after application, 6 = complete desiccation",2
same,All evaluations (total score),young potato plants; total of all evaluation times,17.5
O=C([O-])c1ccccc1O.[Na+] [2% NaSalicylate],"Totals, all evaluations, All",[2]; beans + potatoes,7.5
same,"evaluation, 2 days, potatoes","[2]; potato, 2 days after application, 40 gallons/acre",1
same,"evaluation, 11 days, potatoes","[2]; potato, 11 days after application, 40 gallons/acre",1
same,"evaluation, 15 days, potatoes","[2]; potato, 15 days after application, 40 gallons/acre",1
same,"evaluation, […], potatoes","[2]; potato, […] after application, 40 gallons/acre, 6 = complete desiccation",0
same,"Totals, all evaluations, Potatoes","[2]; potato, total of 4 evaluation times",3
same,"evaluation, 2 days, beans","[2]; snapbean, 2 days after application, 40 gallons/acre",1
same,"evaluation, 11 days, beans","[2]; snapbean, 11 days after application, 40 gallons/acre",1.5
same,"evaluation, 15 days, beans","[2]; snapbean, 15 days after application, 40 gallons/acre",1
same,"evaluation, […], beans","[2]; snapbean, […] after application, 40 gallons/acre, 6 = complete desiccation",1
same,"Totals, all evaluations, Beans","[2]; snapbean, total of 4 evaluation times",4.5
"N.N.O=C(O)CCC(=O)O [2.52% di-ammonium succinate, di-ammonium succinate]","Injury rating, average per plot",[3]; [12],0
same,"% desiccation (Day 12), foliage",[3],0%
same,"% desiccation (Day 12), pods",[3],0%
same,"% desiccation (Day 12), vines",[3],0%
same,"Injury rating, average per plot",[3]; Day 12,0
same,"Injury rating, average per plot",[4]; [13],0
same,"Injury rating, average per plot",[4]; Day 2,0
same,"Injury rating, average per plot",[4]; Day 3,0
same,"Injury rating, average per plot",[4]; Day 4,0
same,"% desiccation (Day 12), foliage",[4],0%
same,"% desiccation (Day 12), pods",[4],0%
same,"% desiccation (Day 12), vines",[4],0%
same,"Injury rating, average per plot",[4]; Day 12,0
"CCCCCCCC/C=C\CCCCCCCC(=O)O [3% oleic, oleic acid]","Injury rating, total score for 2 evaluation, Total Rating",[5]; 60 G/a plus spray to drip,33.6
same,"Injury rating, total score for 2 evaluation, 60 G/a","[5]; 60 G/a, rating 1-5 per pot, 1% Emsorb, 0.3% Hasten",24.2
same,Average rating per pot,[5]; scale 1-5,1.2
same,"Injury rating, total score for 2 evaluation, Spray to drip",[5]; spray to drip,9.4
"O=C([O-])c1ccccc1O.[Na+] [3% sodium salicylate, sodium salicylate]","Injury rating, average per plot",[3]; [12],4
same,"% desiccation (Day 12), foliage",[3],95%
same,"% desiccation (Day 12), pods",[3],90%
same,"% desiccation (Day 12), vines",[3],90%
same,"Injury rating, average per plot",[3]; Day 12,4.78
same,"Injury rating, average per plot",[4]; [13],3.8
same,"Injury rating, average per plot",[4]; Day 2,4.13
same,"Injury rating, average per plot",[4]; Day 3,4.57
same,"Injury rating, average per plot",[4]; Day 4,4.5
same,"% desiccation (Day 12), foliage",[4],92%
same,"% desiccation (Day 12), pods",[4],90%
same,"% desiccation (Day 12), vines",[4],70%
same,"Injury rating, average per plot",[4]; Day 12,4.7
CCCCCCCCC(=O)O [3.375% pelargonic],"Injury ratings based on 2 independent evaluations, 40 G/acre",plants [6],43
same,"Injury ratings based on 2 independent evaluations, 60 G/acre",plants [6],53.6
same,Average rating per pot,plants [6],4.41
"CCCCCCCCC(=O)O [4% pelargonic acid, pelargonic acid]","Total injury ratings, Total","[7]; 40 G/a, 60 G/a and spray to drip",153.4
same,"Total injury ratings, 40 G/a","[7]; 40 G/a, 9 pots/treatment, rating 1-5 per pot, 1.125% Emsorb 6900",41.6
same,"Total injury ratings, 60 G/a","[7]; 60 G/a, 10 pots/treatment",45.6
same,"Total injury ratings, Spray to drip","[7]; spray to drip, 7 pots/treatment",66.2
CCCCCCCCC(=O)O [4.5% pelargonic],"Injury ratings based on 2 independent evaluations, 40 G/acre",plants [6],45.1
same,"Injury ratings based on 2 independent evaluations, 60 G/acre",plants [6],53.9
same,Average rating per pot,plants [6],4.51
CCCCCCCC(=O)O [Caprylic Acid (0.2%)],Foliage Affected (%),soybeans [8],1.25%
same,Overall Effect,soybeans [8],0.5
CCCCCCCC(=O)O [Caprylic Acid (0.5%)],pH Value,[9],3.55 and 3.30
same,Foliage Affected (%),soybeans [8],9%
same,Overall Effect,soybeans [8],2.25
same,"Green Foliage, Foliage Affected (%)",Dry Beans,10-15%
same,"Yellow Foliage, Foliage Affected (%)",Dry Beans,70%
same,"Green Foliage, Overall Effect",Dry Beans,2.5
same,"Yellow Foliage, Overall Effect",Dry Beans,2
same,Foliage Affected (%),soybeans [10],5%
same,Overall Effect,soybeans [10],1.5
O=C(O)CC(O)(CC(=O)O)C(=O)O [Citric Acid (0.5%)],pH Value,[9],1.64
same,"Green Foliage, Foliage Affected (%)",Dry Beans,0%
same,"Yellow Foliage, Foliage Affected (%)",Dry Beans,0%
same,"Green Foliage, Overall Effect",Dry Beans,0
same,"Yellow Foliage, Overall Effect",Dry Beans,0
O=C(O)CC(O)(CC(=O)O)C(=O)O [CitricAcid (0.5%)],Foliage Affected (%),soybeans [10],0%
same,Overall Effect,soybeans [10],0
C[C@H](O)C(=O)O [L-Lactic Acid (0.5%)],pH Value,[9],1.93
same,Foliage Affected (%),soybeans [10],0%
same,Overall Effect,soybeans [10],0
C[C@H](O)C(=O)O [L-Lactic Acid (1.0%)],Foliage Affected (%),soybeans [8],1.25%
same,Overall Effect,soybeans [8],0.5
O=C(O)CC(O)C(=O)O [L-Malic Acid (0.5%)],pH Value,[9],1.69
same,Foliage Affected (%),soybeans [10],0%
same,Overall Effect,soybeans [10],0
O=C([O-])c1ccccc1O.[Na+] [Na Salicylate (0.5%)],"Green Foliage, Foliage Affected (%)",Dry Beans,5-10%
same,"Yellow Foliage, Foliage Affected (%)",Dry Beans,30%
same,"Green Foliage, Overall Effect",Dry Beans,2
same,"Yellow Foliage, Overall Effect",Dry Beans,1
O=C([O-])c1ccccc1O.[Na+] [Na Salicylate (2%)],"Green Foliage, Foliage Affected (%)",Dry Beans,90%
same,"Yellow Foliage, Foliage Affected (%)",Dry Beans,>90%
same,"Green Foliage, Overall Effect",Dry Beans,5
same,"Yellow Foliage, Overall Effect",Dry Beans,5
O=C(O)CCC(=O)O [Succinic Acid (0.5%)],pH Value,[9],1.94
same,"Green Foliage, Foliage Affected (%)",Dry Beans,0%
same,"Yellow Foliage, Foliage Affected (%)",Dry Beans,0%
same,"Green Foliage, Overall Effect",Dry Beans,0
same,"Yellow Foliage, Overall Effect",Dry Beans,0
same,Foliage Affected (%),soybeans [10],0%
same,Overall Effect,soybeans [10],0
"N.N.O=S(=O)(O)O [ammonium sulfate (1.12%), ammonium sulfate]","Relative injury ratings, Day #2",[11],0
same,"Relative injury ratings, Day #4",[11],0
same,"Relative injury ratings, Day #5",[11],0
same,Average rating per pot,[11],0
"N.N.O=C(O)C(O)C(O)C(=O)O (centres unmarked) [ammonium tartrate (1.42%), ammonium tartrate]","Relative injury ratings, Day #2",[11],0
same,"Relative injury ratings, Day #4",[11],0
same,"Relative injury ratings, Day #5",[11],0
same,Average rating per pot,[11],0
"N.N.O=C(O)CCC(=O)O [di-ammonium succinate (1.26%), di-ammonium succinate]","Relative injury ratings, Day #2",[11],0
same,"Relative injury ratings, Day #4",[11],0
same,"Relative injury ratings, Day #5",[11],0
same,Average rating per pot,[11],0
